Reference: patent publication US20050175535A1 (CV Therapeutics, Inc., priority 2000, published 2005)

Legend:
[1] = Coronary blood flow and hemodynamics in conscious dogs; format: in vivo; details: conscious dogs
Method: Ten mongrel dogs (weighing 23-27 kg) were premedicated with Acepromazine (0.3 mg/kg im) and anesthetized with sodium pentobarbital (25 mg/kg) and then intubated and ventilated with room air. A thoracotomy was performed in the left fifth intercostal space using sterile surgical techniques. A Tygon catheter (Cardiovascular Instruments, Inc.) was placed in the descending thoracic aorta for the measurements of blood pressure. A solid-state pressure gauge (P6.5, Konisberg Instrument, Inc) was placed in the apex of the left ventricle for the measurement of the left ventricular systolic pressure (LVSP) and calculation of first derivative of left ventricular pressure (LV dP/dt). A Doppler transducer (Craig Hartley) was placed on the left circumflex coronary artery for measurement of CBF. An hydraulic coronary occluder (In Vivo Metric, Inc) was implanted in 4 dogs around the left circumflex coronary artery. The chest was closed in layers and the catheters and wires were run subcutaneously and exited in the interscapular area. The dogs were allowed 10 to 14 days to recover fully from the surgery and were trained to lie on a laboratory table. The protocols were approved by the Institutional Animal Care and Use Committee of New York Medical College and conform to the “Guiding Principles for the use and Care of Laboratory Animals” of the National Institute of Health and the American Physiology Society.
Arterial pressure was measured by connecting the previously implanted catheter to a strain-gauge transducer (P231D, Statham) and mean arterial pressure (MAP) was derived using 2-Hz low-pass filter. […] Left circumflex CBF was measured using a pulsed Doppler flowmeter (System 6, Triton technology), and mean CBF was derived using a 2-Hz low-pass filter. Mean CR was calculated as the quotient of MAP and CBF. Heart rate was monitored from the pressure pulse interval using a cardiotachometer (Beckman Instruments). The lead-2 of the electrocardiogram was recorded during the experiments in order to examine the alterations in the AV nodal conduction (PR interval). All signals were recorded on a direct-writing oscillograph (Gould 2800).
Hemodynamics were measured before, during and after each dose. Following each dose hemodynamics were allowed to return to baseline before the administration of the next dose. Changes in heart rate, blood pressure, CBF, and ECG were recorded.
Hemodynamic results are expressed as mean±SEM. […] Because no statistical differences were found among the baseline values between each dose for each parameter measure, the first baseline registered during each experiment was used as the control value.

[2] = Coronary and peripheral artery blood flow velocity, HR and MAP in anesthetized closed-chest dogs; format: in vivo; parameters: APV: unit not given here; details: for APV / MAP / HR: Ado (200 or 300 ug/kg); for Coronary, maximal folds increase in average peak velocity (APVmax/APVbaseline) / Peripheral, maximal folds increase in average peak velocity (APVmax/APVbaseline): iv injection of CVT-3146 (1 μg/kg) and adenosine (200 or 300 μg/kg)
Method: Mongrel dogs (either sex, 17-21 kg; n=6) were obtained from a local vendor (Barton, Oxford, N.J.). Blood flow velocity in the coronary and cranial circumflex arteries was measured using Doppler transducer-tipped guide wires 0.014″ in diameter (FloWire®, model 1400J) purchased from Cardiometrics, Inc., Mountain View, Calif. For the positioning of the FloWire, a Judkins left coronary guiding catheter (JL3.5, 8F; Cordis) was used. Vascular arterial angiography was performed using Hypaque-76 contrast fluid (Bracco Diagnostics, Inc., Princeton, N.J.; Lot #9H28899) and a mobile fluoroscopic unit (Philips, BV 29). Systemic arterial blood pressure was measured using an electronic transducer-tipped catheter (Millar).
Following the administration of heparin (20 U/kg+100 U/hr), the pressure transducer-tipped catheter was introduced through the left femoral artery and positioned in the descending aorta. The Doppler FloWire was introduced through the right femoral artery. A peripheral vein was cannulated for the administration of all drugs. […] The sequence of positioning of the Doppler catheter was reversed in consecutive experiments. […] All parameters were allowed to recover (>30 min) to their respective baseline values between two consecutive drug administrations. […] The effect of adenosine on both coronary and peripheral artery APV was studied in five of the six dogs.
The following parameters were monitored and recorded: Average peak coronary and peripheral artery blood flow velocity (APV), mean arterial blood pressure (MAP) (mmHg), and sinus cycle length (SCL; msec). Differences in measure parameters were tested for statistical significance using ANOVA and Student's t test corrected for multiple measurements. Data are expressed as the mean±SEM.

[3] = CVT-3146 1 μg/kg, adenosine 200 or 300 μg/kg iv bolus, anesthetized dogs
[4] = anesthetized dogs, listed as adenosine

Structure (SMILES): Nc1ncnc2c1ncn2[C@@H]1O[C@H](CO)[C@@H](O)[C@H]1O [Adenosine, adenosine, reference compound]
- increase in LVSP ([1]; 67 μg/kg): 12±3%
- increase in LVSP ([1]; 134 μg/kg): 12±3%
- maximal decrease in CR ([1]; 267 μg/kg iv): 73±1%
- increase in LVSP ([1]; 267 μg/kg): 18±6%
- increase in dP/dt ([1]; 267 μg/kg): 29±7%
- ED50 ([1]; Canis lupus familiaris, IV bolus, read-out: ED50, increase in mean CBF): 0.051 ± 0.015 mg/kg
- APV ([2]; Coronary, time 1′, Baseline 42 ± 5): 39 ± 8
- MAP ([2]; Coronary, time 1′, Baseline […] ± 6): 113 ± 6 mmHg
- HR ([2]; Coronary, time 1′, Baseline 170 ± 10): 175 ± 5
- APV ([2]; Coronary, time 1.5′, Baseline 42 ± 5): 55 ± 8
- MAP ([2]; Coronary, time 1.5′, Baseline […] ± 6): 117 ± 6 mmHg
- HR ([2]; Coronary, time 1.5′, Baseline 170 ± 10): 171 ± 5
- APV ([2]; Coronary, time 2′, Baseline 42 ± 5): 52 ± 7
- MAP ([2]; Coronary, time 2′, Baseline […] ± 6): 120 ± 6 mmHg
- HR ([2]; Coronary, time 2′, Baseline 170 ± 10): 170 ± 5
- APV ([2]; Coronary, time 3′, Baseline 42 ± 5): 49 ± 6
- MAP ([2]; Coronary, time 3′, Baseline […] ± 6): 125 ± 6 mmHg
- HR ([2]; Coronary, time 3′, Baseline 170 ± 10): 168 ± 8
- APV ([2]; Coronary, time 4′, Baseline 42 ± 5): 47 ± 6
- MAP ([2]; Coronary, time 4′, Baseline […] ± 6): 126 ± 6 mmHg
- HR ([2]; Coronary, time 4′, Baseline 170 ± 10): 164 ± 10
- APV ([2]; Coronary, time 5′, Baseline 42 ± 5): 47 ± 6
- MAP ([2]; Coronary, time 5′, Baseline […] ± 6): 128 ± 6 mmHg
- HR ([2]; Coronary, time 5′, Baseline 170 ± 10): 163 ± 10
- APV ([2]; Coronary, time 10″, Baseline 42 ± 5): 90 ± 10
- MAP ([2]; Coronary, time 10″, Baseline […] ± 6): 126 ± 8 mmHg
- HR ([2]; Coronary, time 10″, Baseline 170 ± 10): 174 ± 7
- APV ([2]; Coronary, time 20″, Baseline 42 ± 5): 85 ± 10
- MAP ([2]; Coronary, time 20″, Baseline […] ± 6): 90 ± 9 mmHg
- HR ([2]; Coronary, time 20″, Baseline 170 ± 10): 166 ± 11
- APV ([2]; Coronary, time 30″, Baseline 42 ± 5): 75 ± 9
- MAP ([2]; Coronary, time 30″, Baseline […] ± 6): 107 ± 9 mmHg
- HR ([2]; Coronary, time 30″, Baseline 170 ± 10): 173 ± 6
- APV ([2]; Peripheral, time 1′, Baseline 33 ± 3): 44 ± 7
- MAP ([2]; Peripheral, time 1′, Baseline 118 ± 8): 105 ± 6 mmHg
- HR ([2]; Peripheral, time 1′, Baseline 165 ± 10): 171 ± 6
- APV ([2]; Peripheral, time 1.5′, Baseline 33 ± 3): 38 ± 4
- MAP ([2]; Peripheral, time 1.5′, Baseline 118 ± 8): 106 ± 7 mmHg
- HR ([2]; Peripheral, time 1.5′, Baseline 165 ± 10): 171 ± 6
- APV ([2]; Peripheral, time 2′, Baseline 33 ± 3): 35 ± 3
- MAP ([2]; Peripheral, time 2′, Baseline 118 ± 8): 110 ± 6 mmHg
- HR ([2]; Peripheral, time 2′, Baseline 165 ± 10): 169 ± 6
- APV ([2]; Peripheral, time 3′, Baseline 33 ± 3): 33 ± 3
- MAP ([2]; Peripheral, time 3′, Baseline 118 ± 8): 115 ± 7 mmHg
- HR ([2]; Peripheral, time 3′, Baseline 165 ± 10): 165 ± 9
- APV ([2]; Peripheral, time 4′, Baseline 33 ± 3): 31 ± 3
- MAP ([2]; Peripheral, time 4′, Baseline 118 ± 8): 119 ± 8 mmHg
- HR ([2]; Peripheral, time 4′, Baseline 165 ± 10): 160 ± 9
- APV ([2]; Peripheral, time 5′, Baseline 33 ± 3): 30 ± 2
- MAP ([2]; Peripheral, time 5′, Baseline 118 ± 8): 121 ± 7 mmHg
- HR ([2]; Peripheral, time 5′, Baseline 165 ± 10): 158 ± 10
- APV ([2]; Peripheral, time 10″, Baseline 33 ± 3): 62 ± 9
- MAP ([2]; Peripheral, time 10″, Baseline 118 ± 8): 107 ± 9 mmHg
- HR ([2]; Peripheral, time 10″, Baseline 165 ± 10): 171 ± 6
- APV ([2]; Peripheral, time 20″, Baseline 33 ± 3): 76 ± 10
- MAP ([2]; Peripheral, time 20″, Baseline 118 ± 8): 85 ± 9 mmHg
- HR ([2]; Peripheral, time 20″, Baseline 165 ± 10): 162 ± 15
- APV ([2]; Peripheral, time 30″, Baseline 33 ± 3): 59 ± 11
- MAP ([2]; Peripheral, time 30″, Baseline 118 ± 8): 87 ± 9 mmHg
- HR ([2]; Peripheral, time 30″, Baseline 165 ± 10): 168 ± 9
- duration of >2-fold increase in coronary APV [2, 3]: < 20 s
- time for all parameters to return to baseline post injection [2, 3]: ≤ 10 min
- Coronary, maximal folds increase in average peak velocity (APVmax/APVbaseline) ([2]; anesthetized dogs): 2.5 ± 0.3 fold
- Peripheral, maximal folds increase in average peak velocity (APVmax/APVbaseline) ([2]; anesthetized dogs): 2.0 ± 0.4 fold
- Coronary, maximal folds increase in average peak velocity (APVmax/APVbaseline) [2, 4]: 2.5±0.3 fold
- Peripheral, maximal folds increase in average peak velocity (APVmax/APVbaseline) [2, 4]: 2.0±0.4 fold
